From PubChem BioAssay AID588384 (NMMLSC, 2011)
pEC50: −log10 of the molar value. The source made the active and inactive calls.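 Rule for the calls: active = half-maximal concentration at most 10 µM and% response shifting at least 30 points across doses; inactive = the rest.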

What follows are compounds tested against Cell division control protein 42 homolog (Homo sapiens) (UniProt P60953) (assay: inhibitors of activated Cdc42 GTP binding, SAR follow-up, selectivity assay for Rab7 inhibitor project, biochemical, activated mutant, bead multiplex, flow cytometry, round 1 (AID 588384)). Conditions: GST-Cdc42 act beads, fluorescent GTP binding.
Sequence of Cell division control protein 42 homolog (Homo sapiens) (P60953 whole entry, looked up): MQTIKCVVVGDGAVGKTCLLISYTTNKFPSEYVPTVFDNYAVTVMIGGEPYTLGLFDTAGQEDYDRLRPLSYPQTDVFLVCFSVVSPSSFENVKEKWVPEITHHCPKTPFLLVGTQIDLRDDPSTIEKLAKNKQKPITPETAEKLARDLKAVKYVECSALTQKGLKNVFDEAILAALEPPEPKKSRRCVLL

`COc1ccc(C(=O)NC(=S)Nc2sc3c(c2C(=O)O)CC(C)(C)OC3)cc1` was tested. Which pEC50 did it give?
Its pEC50 is 6.69.

`CC1(C)Cc2c(sc(NC(=S)NC(=O)c3ccccc3F)c2C(=O)O)CO1` was tested. Which pEC50 did it give?
Its pEC50 is 7.29.

`O=C(NC(=S)Nc1sc2c(c1C(=O)O)CCOC2)c1ccccc1` was tested. Which pEC50 did it give?
Its pEC50 is 7.36.

How did the pEC50 turn out when `CC1(C)Cc2c(sc(NC(=S)NC(=O)c3cccc(Br)c3)c2C(=O)O)CO1` was run?
Its pEC50 is 5.25.

With `CC1(C)CCc2sc(NC(=S)NC(=O)c3ccccc3)c(C(=O)O)c2C1` as the compound, how does the pEC50 read?
Its pEC50 is 6.97.

How did the pEC50 turn out when `CC1(C)Cc2c(sc(NC(=S)NC(=O)c3ccccc3Br)c2C(=O)O)CO1` was run?
The pEC50 was 7.27.

How did the pEC50 turn out when `CC1Cc2c(sc(NC(=S)NC(=O)c3ccccc3)c2C(=O)O)CO1` (stereo unspecified) was run?
The pEC50 was 7.05.

`CC1(C)Cc2c(sc(NC(=O)NC(=O)c3ccccc3)c2C(=O)O)CO1` was tested. Which pEC50 did it give?
Its pEC50 is 6.33.

`CC1(C)Cc2c(sc(NC(=S)NC(=O)c3cccc(F)c3)c2C(=O)O)CO1` was tested. Which pEC50 did it give?
Its pEC50 is 6.49.

`CC1(C)Cc2c(sc(NC(=S)NC(=O)c3ccc(Br)cc3)c2C(=O)O)CO1` was tested. Which pEC50 did it give?
Its pEC50 is 6.54.

How did the pEC50 turn out when `COc1cccc(C(=O)NC(=S)Nc2sc3c(c2C(=O)O)CC(C)(C)OC3)c1` was run?
The pEC50 was 7.27.

Same assay, conditions: GST-Cdc42 act beads, fluorescent GTP binding, at 100 µM (top of the series)

Which “% response (lower = inhibition)” value does the source give for `CC1(C)Cc2c(sc(NC(=O)Cc3ccccc3)c2C(=O)O)CO1` here?
The value was “inactive”.

`CCOC(=O)c1c(NC(=S)Nc2ccccc2)sc2c1CC(C)(C)OC2` was tested. Which “% response (lower = inhibition)” value did it give?
Its value is “inactive”.

For `CCOC(=O)c1c(NC(=O)Nc2ccc(C)cc2)sc2c1CCN(C)C2`, which “% response (lower = inhibition)” value is on record?
The value was “inactive”.

With `Cc1ccc(NC(=O)Nc2sc3c(c2C(=O)O)CCN(C)C3)cc1` as the compound, how does the “% response (lower = inhibition)” value read?
The value was “inactive”.

How did the “% response (lower = inhibition)” value turn out when `COC(=O)c1c(N)sc2c1CC(C)(C)OC2` was run?
The value was “inactive”.

For `CCOC(=O)c1c(NC(=S)NC(=O)c2ccccc2)sc2ccccc12`, which “% response (lower = inhibition)” value is on record?
Its value is “inactive”.

For `CN1CCc2c(sc(NC(=O)Nc3ccc(F)cc3)c2C(=O)O)C1`, which “% response (lower = inhibition)” value is on record?
Its value is “inactive”.

How did the “% response (lower = inhibition)” value turn out when `Cc1ccc(Nc2nc3sc4c(c3c(=O)o2)CCN(C)C4)cc1` was run?
Its value is “inactive”.

How did the “% response (lower = inhibition)” value turn out when `CCOC(=O)c1c(N)sc2ccccc12` was run?
Its value is “inactive”.

How did the “% response (lower = inhibition)” value turn out when `CCOC(=O)c1c(NC(=O)NC(C)(C)C)sc2c1CCN(C)C2` was run?
Its value is “inactive”.

For `CC1(C)Cc2c(sc(NC(=S)Nc3ccccc3)c2C(=O)O)CO1`, which “% response (lower = inhibition)” value is on record?
The value was “inactive”.

`CCOC(=O)c1c(NC(=O)Nc2ccc(F)cc2)sc2c1CCN(C)C2` was tested. Which “% response (lower = inhibition)” value did it give?
Its value is “inactive”.

`CC(C)(C)OC(=O)c1c(NC(=S)NC(=O)c2ccccc2)sc2c1CCOC2` was tested. Which “% response (lower = inhibition)” value did it give?
The value was “inactive”.

With `CN1CCc2c(sc3nc(Nc4ccc(F)cc4)oc(=O)c23)C1` as the compound, how does the “% response (lower = inhibition)” value read?
Its value is “inactive”.

Which “% response (lower = inhibition)” value does the source give for `COC(=O)c1c(NC(=S)NC(=O)c2ccccc2)sc2c1CC(C)(C)OC2` here?
The value was “inactive”.
